According to patent publication US8143293B2, “Kinase inhibitors useful for the treatment of myleoprolific diseases and other proliferative diseases” (Deciphera Pharmaceuticals, LLC, priority 2007, dated 2012):
Numbering of substitutions follows the chain as printed. pIC50: −log10 of the molar value.

Experiments:
[1] = target: T1, Abl kinase (SEQ ID NO: 1) (Homo sapiens, UniProt P00519); assay: Abl kinase (SEQ ID NO:1) assay, pyruvate kinase/lactate dehydrogenase coupled; settings: 2 h preincubation, ATP 500 μM; read-out: Biochemical IC50, Abl Enzyme Assay
T1 construct: purchased deCode Genetics
T1 sequence (P00519 with tags, fused parts or gaps): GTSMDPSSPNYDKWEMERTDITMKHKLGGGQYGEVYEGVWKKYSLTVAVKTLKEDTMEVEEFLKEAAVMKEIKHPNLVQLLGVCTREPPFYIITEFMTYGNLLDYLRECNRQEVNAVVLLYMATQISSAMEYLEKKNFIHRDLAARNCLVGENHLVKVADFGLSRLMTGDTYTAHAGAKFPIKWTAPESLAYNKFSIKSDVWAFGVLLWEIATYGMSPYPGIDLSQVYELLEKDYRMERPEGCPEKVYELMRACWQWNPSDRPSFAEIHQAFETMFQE
Experimental: Abl Kinase (SEQ ID NO:1) Assay
Activity of Abl kinase (SEQ ID NO: 1) was determined by following the production of ADP from the kinase reaction through coupling with the pyruvate kinase/lactate dehydrogenase system (e.g., Schindler, et al. Science (2000) 289, 1938-1942). In this assay, the oxidation of NADH (thus the decrease at A340 nm) was continuously monitored spectrophometrically. The reaction mixture (100 μl) contained Abl kinase (1 nM. Abl from deCode Genetics), peptide substrate (EAIYAAPFAKKK, 0.2 mM), MgCl2 (10 mM), pyruvate kinase (4 units), lactate dehydrogenase (0.7 units), phosphoenol pyruvate (1 mM), and NADH (0.28 mM) in 90 mM Tris buffer containing 0.2% octyl-glucoside and 3.5% DMSO, pH 7.5. Test compounds were incubated with Abl (SEQ ID NO:1) and other reaction reagents at 30° C. for 2 h before ATP (500 μM) was added to start the reaction. The absorption at 340 nm was monitored continuously for 2 hours at 30° C. on Polarstar Optima plate reader (BMG). The reaction rate was calculated using the 1.0 to 2.0 h time frame. Percent inhibition was obtained by comparison of reaction rate with that of a control (i.e. with no test compound). IC50 values were calculated from a series of percent inhibition values determined at a range of inhibitor concentrations using software routines as implemented in the GraphPad Prism software package.

[2] = target: T2, T315I Abl kinase (SEQ ID NO:2) (Homo sapiens, UniProt P00519, T315I); assay: T315I Abl kinase (SEQ ID NO:2) assay, pyruvate kinase/lactate dehydrogenase coupled; settings: 1 h preincubation, ATP 500 μM; read-out: Biochemical IC50, Abl T315I Enzyme Assay
T2 construct: purchased deCode Genetics
T2 sequence (P00519 with tags, fused parts or gaps T315I): T1 sequence (P00519 with tags, fused parts or gaps) with T94I
Experimental: Abl Kinase (SEQ ID NO:2) Assay
Activity of T315I Abl kinase (SEQ ID NO:2) was determined by following the production of ADP from the kinase reaction through coupling with the pyruvate kinase/lactate dehydrogenase system (e.g., Schindler, et al. Science (2000) 289, 1938-1942). In this assay, the oxidation of NADH (thus the decrease at A340 nm) was continuously monitored spectrophometrically. The reaction mixture (100 μl) contained Abl kinase (4.4 nM, […] Abl from deCode Genetics), peptide substrate (EAIYAAPFAKKK, 0.2 mM), MgCl2 (10 mM), pyruvate kinase (4 units), lactate dehydrogenase (0.7 units), phosphoenol pyruvate (1 mM), and NADH (0.28 mM) in 90 mM Tris buffer containing 0.2% octyl-glucoside and 1% DMSO, pH 7.5. Test compounds were incubated with T315I Abl (SEQ ID NO:2) and other reaction reagents at 30° C. for 1 h before ATP (500 μM) was added to start the reaction. The absorption at 340 nm was monitored continuously for 2 hours at 30° C. on Polarstar Optima plate reader (BMG). The reaction rate was calculated using the 1.0 to 2.0 h time frame. Percent inhibition was obtained by comparison of reaction rate with that of a control (i.e. with no test compound). IC50 values were calculated from a series of percent inhibition values determined at a range of inhibitor concentrations using software routines as implemented in the GraphPad Prism software package.

[3] = target: T3, C-Met kinase (SEQ ID NO:10) (Homo sapiens, UniProt P08581); assay: C-Met kinase (SEQ ID NO:10) assay, pyruvate kinase/lactate dehydrogenase coupled; settings: 0.5 h preincubation, ATP 100 μM; read-out: Biochemical IC50, c-Met Enzyme Assay
T3 construct: 956-1390, from Invitrogen, catalogue #PV3143; His6 (N-terminal leader MSYYHHHHHH... with TEV and thrombin sites) (N); purchased Invitrogen PV3143
Experimental: C-Met Kinase (SEQ ID NO:10) Assay
Activity of C-Met kinase (SEQ ID NO:10) was determined by following the production of ADP from the kinase reaction through coupling with the pyruvate kinase/lactate dehydrogenase system (e.g., Schindler, et al. Science (2000) 289, 1938-1942). In this assay, the oxidation of NADH (thus the decrease at A340 nm) was continuously monitored spectrophometrically. The reaction mixture (100 μl) contained C-Met (c-Met residues; 956-1390, from Invitrogen, catalogue #PV3143, […]), polyE4Y (1 mg/ml), MgCl2 (10 mM), pyruvate kinase (4 units), lactate dehydrogenase (0.7 units), phosphoenol pyruvate (1 mM), and NADH (0.28 mM) in 90 mM Tris buffer containing 0.25 mM DTT, 0.2% octyl-glucoside and 1% DMSO, pH 7.5. Test compounds were incubated with C-Met (SEQ ID NO:10) and other reaction reagents at 22° C. for 0.5 h before ATP (100 μM) was added to start the reaction. The absorption at 340 nm was monitored continuously for 2 hours at 30° C. on Polarstar Optima plate reader (BMG). The reaction rate was calculated using the 1.0 to 2.0 h time frame. Percent inhibition was obtained by comparison of reaction rate with that of a control (i.e. with no test compound). IC50 values were calculated from a series of percent inhibition values determined at a range of inhibitor concentrations using software routines as implemented in the GraphPad Prism software package.

[4] = target: T4, BaF3 cells transfected with wild type p210 BCR-Abl (Homo sapiens, UniProt P00519); assay: Ba/F3 p210 whole cell proliferation assay; format: cell-based; settings: 72 hours, Cell Titer Blue; read-out: Whole Cell Antiproliferation IC50, Ba/F3 p210 whole cell proliferation assay
T4 construct: fused on or other part: P11274 (Breakpoint cluster region protein)
Experimental: (§1) BaF3 cells (parental or transfected with the following: wild type p210 BCR-Abl and T315I p210 BCR-Abl was obtained from Professor Richard Van Etten (New England Medical Center, Boston, Mass.). Briefly, cells were grown in RPMI 1640 supplemented with 10% characterized fetal bovine serum (HyClone, Logan, Utah) at 37 degrees Celsius, 5% CO2, 95% humidity. Cells were allowed to expand until reaching 80% saturation at which point they were subcultured or harvested for assay use.
(§2) A serial dilution of test compound was dispensed into a 96 well black clear bottom plate (Corning, Corning, N.Y.). For each cell line, three thousand cells were added per well in complete growth medium. Plates were incubated for 72 hours at 37 degrees Celsius, 5% CO2, 95% humidity. At the end of the incubation period Cell Titer Blue (Promega, Madison, Wis.) was added to each well and an additional 4.5 hour incubation at 37 degrees Celsius, 5% CO2, 95% humidity was performed. Plates were then read on a BMG Fluostar Optima (BMG, Durham, N.C.) using an excitation of 544 nm and an emission of 612 nm. Data was analyzed using Prism software (Graphpad, San Diego, Calif.) to calculate IC50's.

[5] = target: T5, BaF3 cells transfected with T315I p210 BCR-Abl (Homo sapiens, UniProt P00519, T315I, cells depend on it); assay: Ba/F3 p210 T315I whole cell proliferation assay; format: cell-based; settings: 72 hours, Cell Titer Blue; read-out: Whole Cell Antiproliferation IC50, Ba/F3 p210 T315I whole cell proliferation assay
T5 construct: fused on or other part: P11274 (Breakpoint cluster region protein)
Experimental: as §1, §2

T3 sequence (P08581 with tags, fused parts or gaps): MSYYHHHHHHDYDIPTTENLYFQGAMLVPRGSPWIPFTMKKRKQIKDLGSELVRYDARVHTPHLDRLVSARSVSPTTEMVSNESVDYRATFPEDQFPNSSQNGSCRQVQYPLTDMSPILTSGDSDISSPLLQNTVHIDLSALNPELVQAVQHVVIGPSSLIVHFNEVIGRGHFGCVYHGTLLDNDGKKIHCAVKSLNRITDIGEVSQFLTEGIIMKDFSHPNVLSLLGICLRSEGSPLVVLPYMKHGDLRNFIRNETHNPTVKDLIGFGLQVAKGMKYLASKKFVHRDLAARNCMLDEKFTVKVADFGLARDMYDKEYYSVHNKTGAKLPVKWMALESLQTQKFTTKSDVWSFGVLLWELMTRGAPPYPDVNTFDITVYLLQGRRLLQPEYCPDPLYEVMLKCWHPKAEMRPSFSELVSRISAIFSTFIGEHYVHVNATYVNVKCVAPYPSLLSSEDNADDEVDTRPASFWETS

pIC50 [1] | pIC50 [2] | pIC50 [3] | GI50 [4] [nM] | GI50 [5] [nM] | Compound
> 7.00 | > 5.00 | > 6.00 | < 100 | < 100 | 1-(3-cyclopentylisoxazol-5-yl)-3-(2-fluoro-4-(2-(1-methyl-1H-pyrazol-4-yl)pyridin-4-yloxy)phenyl)urea [Example 13]
> 7.00 | > 7.00 | > 6.00 | < 100 | < 100 | Cn1cc(-c2cc(Oc3ccc(NC(=O)Nc4cc(C(C)(C)C)on4)c(F)c3)ccn2)cn1 [Example 4, 1-(5-t-butylisoxazol-3-yl)-3-(2-fluoro-4-(2-(1-methyl-1H-pyrazol-4-yl)pyridin-4-yloxy)phenyl)urea]
> 7.00 | > 7.00 | > 5.00 | < 100 | < 1000 | Cn1cc(-c2cc(Oc3ccc(NC(=O)Nc4cc(C(F)(F)F)no4)c(F)c3)ccn2)cn1 [Example 7, 1-(2-fluoro-4-(2-(1-methyl-1H-pyrazol-4-yl)pyridin-4-yloxy)phenyl)-3-(3-(trifluoromethyl)isoxazol-5-yl)urea]
> 7.00 | > 6.00 | > 5.00 | < 100 | < 1000 | Cn1cc(-c2cc(Oc3ccc(NC(=O)Nc4cc(C(F)(F)F)nn4C)c(F)c3)ccn2)cn1 [Example 16, 1-(2-fluoro-4-(2-(1-methyl-1H-pyrazol-4-yl)pyridin-4-yloxy)phenyl)-3-(1-methyl-3-(trifluoromethyl)-1H-pyrazol-5-yl)urea]
> 7.00 | > 7.00 | > 6.00 | < 100 | < 100 | Cc1c(Oc2ccnc(-c3cnn(C)c3)c2)ccc(NC(=O)Nc2cnn(C(C)(C)C)c2)c1F [Example 17, 1-(1-tert-butyl-1H-pyrazol-4-yl)-3-(2-fluoro-3-methyl-4-(2-(1-methyl-1H-pyrazol-4-yl)pyridin-4-yloxy)phenyl)urea]
> 6.00 | > 6.00 | > 5.00 | < 100 | < 10000 | Cc1c(NC(=O)Nc2ccc(Oc3ccnc(-c4cnn(C)c4)c3)cc2F)cnn1C(C)C [Example 19, 1-(2-fluoro-4-(2-(1-methyl-1H-pyrazol-4-yl)pyridin-4-yloxy)phenyl)-3-(1-isopropyl-5-methyl-1H-pyrazol-4-yl)urea]
> 7.00 | > 7.00 | > 5.00 | < 100 | < 1000 | Cc1nn(C(C)C)cc1NC(=O)Nc1ccc(Oc2ccnc(-c3cnn(C)c3)c2)cc1F [Example 20, 1-(2-fluoro-4-(2-(1-methyl-1H-pyrazol-4-yl)pyridin-4-yloxy)phenyl)-3-(1-isopropyl-3-methyl-1H-pyrazol-4-yl)urea]
> 7.00 | > 7.00 | > 5.00 | < 100 | < 1000 | Cn1cc(-c2cc(Oc3ccc(NC(=O)Nc4ccn(C(C)(C)C)c4)c(F)c3)ccn2)cn1 [Example 30, 1-(1-tert-butyl-1H-pyrrol-3-yl)-3-(2-fluoro-4-(2-(1-methyl-1H-pyrazol-4-yl)pyridin-4-yloxy)phenyl)urea]

Compound | pIC50 [1] | pIC50 [2] | pIC50 [3] | GI50 [4] [nM] | GI50 [5] [nM]
tert-butyl 4-(2-tert-butyl-5-(3-(2-fluoro-4-(2-(1-methyl-1H-pyrazol-4-yl)pyridin-4-yloxy)phenyl)ureido)pyrimidin-4-yl)piperazine-1-carboxylate [Example 40] | > 7.00 | > 6.00 | > 4.00 | < 1000 | < 1000
